Like-named read-outs stand apart in the source and are kept apart here. Values belong to the molecule of their own block, whether it stands above or below them.
Experiments:
[1] = Tissue distribution (liver, kidney, intestine); format: in vivo, SD rats; settings: rats; drug concentration in tissue lower than plasma concentration
Method: In order to investigate the drug distribution in different tissues and the relationship between CES1 activity and tissue concentration, we conducted tissue distribution experiments. The SD rats were divided into six groups (n = 6 for each group). After a single intragastric administration of Cbz-dFdC (22 mg/kg) and a single injected administration of dFdC (15 mg/kg), the SD rats were sacrificed at 0.5 h, 1.5 h, and 4 h, and the liver, kidney, and intestine were collected. The liver was perfused with ice-cold normal saline and then removed, followed by ice-cold normal saline cleaning. The kidney and intestine were directly removed and then washed with ice-cold normal saline. All of the above operations were carried out on ice, and the removed tissue was stored in an ice bath. The liver, kidney, and intestine were cut and crushed, homogenized with an appropriate amount of phosphate buffer by a homogenizer, and then diluted 5 times with ice-cold PBS buffer (in an ice bath). The tissue homogenates were determined with a BCA kit for protein concentration, a CES1 kit for CES1 activity, and UFLC–MS/MS for drug tissue concentration after pretreatment; the pretreatment method was reported previously.

human HepG2 cell line = assay: CCK-8 tumor cell growth inhibition assay; format: cell-based; settings: HepG2, CCK-8, concentration-dependent
Method: (§1) The cells were cultured on a 96-well plate for 4 h for each well. Then, dimethyl sulfoxide solution containing 0.1–100 mM of Cbz-dFdC and dFdC was diluted 1000 times with the medium before administration. A total of 200 uL of medium containing Cbz-dFdC and dFdC was added per well (n = 6). The medium with drugs was discarded, and 10% CCK-8 solution was added. Then, the absorbance value was read at a wavelength of 450 nm after incubation at 37 °C, for 30 min. The drug concentration of Cbz-dFdC and dFdC in cell were determined by a previously established method.

HepG2 cells = assay: Cell uptake in HepG2 cells; format: cell-based, human
Method: as §1

[2] = design: method as in PMID 22099048; settings: cited from earlier work
[3] = design: method as in PMID 22099048; settings: humans, after intravenous injection; cited from earlier work
[4] = Plasma pharmacokinetics in vivo; settings: SD, rat, rats
Method: SD rats (n = 6) were intragastrically administered Cbz-dFdC (22 mg/kg) and intravenously injected with dFdC (15 mg/kg), and 150 μL blood samples were collected from the retro-orbital route in the right eye at 0, 5, 10, 20, and 30 min and at 1, 2, 4, 6, 12, 24, and 48 h, using heparinized tubes. Without delay, the blood was directly centrifuged at 8000× g at 4 °C for 5 min. Then, the supernatant plasma was collected and immediately extracted using a previously established method or was frozen at −80 °C until further analysis.

cytidine kinase = system: cytidine kinase; design: method as in PMID 1718594, PMID 1740680, PMID 8033147, PMID 12127861, PMID 23230131; settings: after intravenous injection; cited from earlier work
[5] = design: method as in PMID 22099048; settings: rats, after intravenous injection; cited from earlier work
[6] = substrate: O=C(Nc1ccn([C@@H]2O[C@H](CO)[C@@H](O)C2(F)F)c(=O)n1)OCc1ccccc1; assay: Enzymatic kinetics in vitro, human CES1 recombinase; format: in vitro ADME; settings: other: Human CES1 Recombinase, 37 °C, 30 min, 5–200 μM Cbz-dFdC
Method: The SD rats without any treatment were sacrificed after adapting to the environment. Blank blood, the liver, the kidney, and the intestine were collected and treated as described in Section 4.4. Part of the homogenate was removed for centrifugation for 20 min at 9000× g at 4 °C, and the supernatant was obtained as tissue S9. The tissue homogenate and S9 were diluted to […] after the protein concentration was determined by the BCA kit (Abcam, Cambridge, MA, USA). Each matrix consisted of 45 uL of the matrix mixed with 5 uL of the drug dissolved in normal saline solution for about 3 min, followed by incubation at 37 °C in a water bath. Then, acetonitrile containing the internal standard was added to terminate the reaction. Human tissue S9 and human CES1 recombinase purchased from the Ruid Liver Disease Research Co., Ltd. (Shanghai, China) were incubated under the same conditions. An enzyme kinetic study was obtained from the matrix following incubation at 37 °C for 30 min with 5, 10, 20, 50, 100, or 200 μM of Cbz-dFdC. We estimated the parameters and simulated curves according to the Eadie–Hofstee method.

[7] = iv, plasma, after i.v. dFdC 15 mg/kg
[8] = plasma, 15 mg/kg, after dFdC intravenous injection
[9] = plasma, oral, 22 mg/kg, dFdC metabolized from Cbz-dFdC after i.g. Cbz-dFdC
[10] = po, plasma analyte after i.g. Cbz-dFdC 22 mg/kg

tissue penetration [1]: weak tissue penetration
AUC(0-inf) [4, 7]: 22700 ng·h/mL
Cmax [4, 7]: 14100 ng/mL
Tmax [4, 7]: 0.083 h
half-life [4, 7]: 10.6 ± 1.86 h
concentration at 12 h [4, 8]: ~200 ng/mL
concentration at 48 h [4, 8]: ~40 ng/mL
concentration at 24 h ([4]; plasma, intravenous, after i.v. dFdC 15 mg/kg): ~130 ng/mL
C0 ([4]; plasma, iv, after i.v. dFdC 15 mg/kg, read-out: initial plasma concentration): ~15000 ng/mL
concentration at 24 h ([4]; plasma, oral, 22 mg/kg, after i.g. Cbz-dFdC): ~300 ng/mL
concentration at 12 h [4, 9]: ~600 ng/mL
concentration at 48 h [4, 9]: ~130 ng/mL
AUC(0-inf) [4, 10]: 27500 ng·h/mL
Cmax [4, 10]: 1660 ± 432 ng/mL
Tmax [4, 10]: 4 h
half-life [4, 10]: 10.4 ± 0.91 h
Molecule: Nc1ccn([C@@H]2O[C@H](CO)[C@@H](O)C2(F)F)c(=O)n1 [dFdC, Gemcitabine]
cytotoxicity / tumor cell growth inhibition (human HepG2 cell line): better than that of Cbz-dFdC
intracellular concentration (cell uptake) (HepG2 cells): higher than that of dFdC, after the Cbz-dFdC treatment
toxic effects on the gastrointestinal tract [2]: serious toxic effects on the gastrointestinal tract
half-life [3]: 0.2 h
active monophosphate, diphosphate and triphosphate metabolites, share of the dose (cytidine kinase): about 10%
half-life [5]: 2.0 h

B1: Human CES1 Recombinase (Homo sapiens) (protein)
chain: GHPSSPPVVDTVHGKVLGKFVSLEGFAQPVAIFLGIPFAKPPLGPLRFTPPQPAEPWSFVKNATSYPPMCTQDPKAGQLLSELFTNRKENIPLKLSEDCLYLNIYTPADLTKKNRLPVMVWIHGGGLMVGAASTYDGLALAAHENVVVVTIQYRLGIWGFFSTGDEHSRGNWGHLDQVAALRWVQDNIASFGGNPGSVTIFGESAGGESVSVLVLSPLAKNLFHRAISESGVALTSVLVKKGDVKPLAEQIAITAGCKTTTSAVMVHCLRQKTEEELLETTLKMKFLSLDLQGDPRESQPLLGTVIDGMLLLKTPEELQAERNFHTVPYMVGINKQEFGWLIPMQLMSYPLSEGQLDQKTAMSLLWKSYPLVCIAKELIPEATEKYLGGTDDTVKKKDLFLDLIADVMFGVPSVIVARNHRDAGAPTYMYEFQYRPSFSSDMKPKTVIGDHGDELFSVFGAPFLKEGASEEEIRLSKMVMKFWANFARNGNPNGEGLPHWPEYNQKEGYLQIGANTQAAQKLKDKEVAFWTNLFAKKAVEKPPQTEHIEL
notes: purchased Ruid Liver Disease Research Co., Ltd. (Shanghai, China)
Km ([6]; appearance of dFdC): 107.2 µM
Vmax/Km ([6]; appearance of dFdC): 36500 µL/min/mg
Km ([6]; disappearance of Cbz-dFdC): 258.6 µM
Vmax/Km ([6]; disappearance of Cbz-dFdC): 72700 µL/min/mg
